In patent publication US20100291168A1, “ANTIMICROBIAL FORMULATIONS COMPRISING A COMBINATION OF A PYRIDINE THIOL AND A BIS-QUINOLINIUM SALT” (priority 2007, published 2010):

Legend:
[1] = tested on: P. acnes NCTC 737; test: Minimum Inhibitory Concentration (MIC) assay; assay type: cell-based, Propionibacterium acnes; conditions: for MIC: anaerobic, 37° C., 72 hours
Description: (§1) The propionibacteria were cultured and maintained on Wilkins-Chalgren Anaerobe Medium (agar and broth) at pH 6.0; all cultures were incubated anaerobically at 37° C. for 72 hours.
(a) Minimum Inhibitory Concentration (MIC) Assay
This is a standard international method for quantitatively assessing the antimicrobial activity of a compound in a liquid medium. The method used a sterile 96-well microtitre plate, capable of holding about 200 μl of liquid per well. The wells contained liquid culture medium and ranges of decreasing concentrations of the relevant test compound in doubling dilutions (eg, 1000, 500, 250, 125 . . . μg/ml, etc. down to 0.49 μg/ml). The culture medium was as described above.
The wells were inoculated with a liquid suspension of freshly grown micro-organism and incubated under the conditions described above. After incubation, the microtitre plate was examined visually (with the aid of a light box) for cloudiness in each well, which would indicate microbial growth. The MIC value was recorded as the lowest concentration of test compound required to inhibit microbial growth, ie, the lowest concentration for which the liquid in the well remained clear.
The assays were conducted in duplicate and included both negative (culture medium with no micro-organisms) and positive (culture medium plus diluting solvent plus micro-organism) controls.
(§2) The following experiments all used P. acnes NCTC 737 as the test organism.
(§3) MIC, MBC and DDA assays, as described above, were carried out using the test compounds (a) dequalinium chloride (DC), dissolved in ethanol and (b) zinc pyrithione (ZP), dissolved in DMSO. Both compounds were sourced from Sigma-Aldrich, UK.
(§4) The general method of Example 1 was repeated using another bis-quinolinium salt, dequalinium iodide (DI), which was also obtained from Sigma-Aldrich, UK. This compound was tested against P. acnes NCTC 737, both alone and in combination with ZP.

[2] = tested on: P. granulosum PRP-055; test: (S)DDA; assay type: cell-based, Propionibacterium granulosum; conditions: P. granulosum PRP-055 (resistance None); 50 μg DC or 200 μg ZP per disc
Description: (§5) Some of these strains have known antibiotic resistance.
(§6) All the experiments were conducted in triplicate.

[3] = tested on: P. granulosum NCTC 11865; test: (S)DDA; assay type: cell-based, Propionibacterium granulosum; conditions: P. granulosum NCTC 11865 (resistance None); 50 μg DC or 200 μg ZP per disc
Description: as §5, §6

[4] = tested on: P. acnes NCTC 737; test: Minimum Bactericidal Concentration (MBC) assay; assay type: cell-based, Propionibacterium acnes; conditions: for MBC: sub-culture after MIC assay
Description: as §1
(b) Minimum Bactericidal Concentration (MBC) Assay
This assay, normally carried out after an MIC assay, determines the minimum concentration of a compound that is lethal to the micro-organism being tested.
These samples were then individually sub-cultured on antibiotic-free agar medium, under the incubation conditions described above. Following incubation they were examined visually for bacterial growth.
The ratio of MIC to MBC should ideally be as close to 1 as possible.
as §2, §3, §4

[5] = tested on: P. granulosum PRP-044; assay type: cell-based, Propionibacterium granulosum; conditions: P. granulosum PRP-044 (MLS); 50 μg DC or 200 μg ZP per disc
Description: as §5, §6

[6] = tested on: P. granulosum PRP-019; assay type: cell-based, Propionibacterium granulosum; conditions: P. granulosum PRP-019 (MLSK); 50 μg DC or 200 μg ZP per disc
Description: as §5, §6

[7] = tested on: P. granulosum PRP-005; assay type: cell-based, Propionibacterium granulosum; conditions: P. granulosum PRP-005 (MLSK); 50 μg DC or 200 μg ZP per disc
Description: as §5, §6

[8] = tested on: P. granulosum PRP-021; assay type: cell-based, Propionibacterium granulosum; conditions: P. granulosum PRP-021 (MLS); 50 μg DC or 200 μg ZP per disc
Description: as §5, §6

[9] = tested on: P. granulosum PRP-043; assay type: cell-based, Propionibacterium granulosum; conditions: P. granulosum PRP-043 (MLS); 50 μg DC or 200 μg ZP per disc
Description: as §5, §6

[10] = tested on: P. granulosum PRP-006; assay type: cell-based, Propionibacterium granulosum; conditions: P. granulosum PRP-006 (MLS); 50 μg DC or 200 μg ZP per disc
Description: as §5, §6

[11] = tested on: P. acnes PRP-026; assay type: cell-based, Propionibacterium acnes; conditions: P. acnes PRP-026 (MLS); 50 μg DC or 200 μg ZP per disc
Description: as §5, §6

[12] = tested on: P. acnes PRP-008; assay type: cell-based, Propionibacterium acnes; conditions: P. acnes PRP-008 (Clin); 50 μg DC or 200 μg ZP per disc
Description: as §5, §6

[13] = tested on: P. acnes PRP-102; assay type: cell-based, Propionibacterium acnes; conditions: P. acnes PRP-102 (Tet/MLS); 50 μg DC or 200 μg ZP per disc
Description: as §5, §6

[14] = tested on: P. acnes PRP-068; assay type: cell-based, Propionibacterium acnes; conditions: P. acnes PRP-068 (Ery); 50 μg DC or 200 μg ZP per disc
Description: as §5, §6

[15] = tested on: P. acnes PRP-002; assay type: cell-based, Propionibacterium acnes; conditions: P. acnes PRP-002 (Tet/MLS); 50 μg DC or 200 μg ZP per disc
Description: as §5, §6

[16] = tested on: P. acnes PRP-003; assay type: cell-based, Propionibacterium acnes; conditions: P. acnes PRP-003 (Tet); 50 μg DC or 200 μg ZP per disc
Description: as §5, §6

[17] = tested on: P. acnes PRP-004; assay type: cell-based, Propionibacterium acnes; conditions: P. acnes PRP-004 (Tet); 50 μg DC or 200 μg ZP per disc
Description: as §5, §6

[18] = tested on: P. acnes PRP-101; assay type: cell-based, Propionibacterium acnes; conditions: P. acnes PRP-101 (Tet/MLS); 50 μg DC or 200 μg ZP per disc
Description: as §5, §6

[19] = tested on: P. acnes PRP-059; assay type: cell-based, Propionibacterium acnes; conditions: P. acnes PRP-059 (MLS); 50 μg DC or 200 μg ZP per disc
Description: as §5, §6

[20] = tested on: P. acnes PRP-053; assay type: cell-based, Propionibacterium acnes; conditions: P. acnes PRP-053 (Tet/MLS); 50 μg DC or 200 μg ZP per disc
Description: as §5, §6

[21] = tested on: P. acnes PRP-023; assay type: cell-based, Propionibacterium acnes; conditions: P. acnes PRP-023 (MLSK); 50 μg DC or 200 μg ZP per disc
Description: as §5, §6

[22] = tested on: P. acnes PRP-017; assay type: cell-based, Propionibacterium acnes; conditions: P. acnes PRP-017 (MLS); 50 μg DC or 200 μg ZP per disc
Description: as §5, §6

[23] = tested on: P. acnes PRP-010; assay type: cell-based, Propionibacterium acnes; conditions: P. acnes PRP-010 (MLSK); 50 μg DC or 200 μg ZP per disc
Description: (§7) Other propionibacterial strains were also tested, as described in Example 4 below. These included certain antibiotic resistant propionibacteria, such as the two P. acnes strains designated PRP-010 and PRP-039 which are resistant respectively to macrolides-lincosamides-streptogramins-ketolides (MLSK) and to macrolides-lincosamides-streptogramins (MLS) and tetracycline—in other words, PRP-010 is resistant to erythromycin and clindamycin, and PRP-039 to erythromycin, clindamycin and tetracycline.
as §5, §6

[24] = tested on: P. acnes PRP-039; assay type: cell-based, Propionibacterium acnes; conditions: P. acnes PRP-039 (Tet/MLS); 50 μg DC or 200 μg ZP per disc
Description: as §7, §5, §6

[25] = tested on: Cor. mucifaciens ATCC 700355; test: (S)DDA; assay type: cell-based, Corynebacterium mucifaciens
Description: (§8) The activity of a DC/ZP combination was determined, using (S)DDAs, against two further test micro-organisms, namely C. difficile ATCC 7000057 and Cor. mucifaciens ATCC 700355. A DI/ZP combination was also tested against Cor. mucifaciens.
(§9) In these tests, 50 μg (for C. difficile) or 200 μg (for Cor. mucifaciens) of the DC was loaded onto each disc. The DI and the ZP were both loaded at 200 μg per disc. All the (S)DDA experiments were conducted in triplicate.

[26] = tested on: P. acnes NCTC 737; test: Disc diffusion / synergy disc diffusion assay ((S)DDA); assay type: cell-based, Propionibacterium acnes
Description: as §1
(c) Disc Diffusion Assay (DDA)
This is an internationally recognised standard method for qualitatively assessing the antimicrobial activity of a compound.
A sterile paper disc was impregnated with a sample of the test compound in a suitable solvent and 30 minutes allowed for the solvents to evaporate (where possible). The disc was then placed on an agar plate onto which the test micro-organism had been inoculated. The plate was then incubated under the conditions described above, following which it was examined visually for signs of microbial growth. […] The diameter of this zone of “inhibition” was measured using a ProtoCOL™ automated zone sizer (Synbiosis, Cambridge, UK).
(d) Synergy Disc Diffusion Assay (SDDA)
This is a variation on the DDA method, in which two compounds are tested together for their combined antimicrobial activity.
Two test compounds A and B were placed on a single paper disc and the above described DDA procedure repeated.
Mixtures of the two test compounds were then subjected to SDDA assays as described above.
For the (S)DDA experiments, 50 μg of the DC was loaded onto each disc, and 200 μg of the ZP. All the (S)DDA experiments were conducted in triplicate.
For the (S)DDA experiments, 50 μg of the DI was loaded onto each disc, and 200 μg of the ZP. The DI and ZP were both dissolved in DMSO.
All the (S)DDA experiments were conducted in triplicate.

[27] = tested on: C. difficile ATCC 7000057; test: (S)DDA; assay type: cell-based, Clostridium difficile; conditions: 50 μg DC or 200 μg ZP per disc
Description: as §8, §9

[28] = tested on: P. acnes PRP-007; test: (S)DDA; assay type: cell-based, Propionibacterium acnes; conditions: P. acnes PRP-007 (Clin); 50 μg DC or 200 μg ZP per disc
Description: as §5, §6

[29] = tested on: P. acnes PRP-046; test: (S)DDA; assay type: cell-based, Propionibacterium acnes; conditions: P. acnes PRP-046 (resistance None); 50 μg DC or 200 μg ZP per disc
Description: as §5, §6

[30] = Table 6, 200 μg DC or 200 μg ZP per disc
[31] = Example 1, zone of inhibition diameter, 50 μg DC or 200 μg ZP per disc
[32] = Table 7, 200 μg DI or 200 μg ZP per disc
[33] = Example 3, zone of inhibition diameter, 50 μg DI or 200 μg ZP per disc, both in DMSO

Row | Compound | activity of compound alone (MIC, MBC, DDA data) [1] | MIC [1] [µg/mL] | DDA [2] [mm] | DDA [3] [mm] | MIC/MBC ratio [4] | MBC [4] [µg/mL] | DDA [5] [mm] | DDA [6] [mm] | DDA [7] [mm] | DDA [8] [mm] | DDA [9] [mm] | DDA [10] [mm] | DDA [11] [mm] | DDA [12] [mm] | DDA [13] [mm] | DDA [14] [mm] | DDA [15] [mm] | DDA [16] [mm] | DDA [17] [mm] | DDA [18] [mm] | further results
1 | Cc1cc(N)c2ccccc2[n+]1CCCCCCCCCC[n+]1c(C)cc(N)c2ccccc21.[Cl-].[Cl-] [DC, dequalinium chloride] | active | 7.8 | 29.08 | 14.08 | 0.5 | 15.6 | 17.37 | 18.91 | 20.55 | 27.95 | 23.02 | 26.82 | 19.01 | 19.73 | 21.68 | 20.45 | 20.04 | 21.27 | 20.45 | 16.96 | DDA [19]: 19.42 mm; DDA [20]: 21.38 mm; DDA [21]: 19.32 mm; DDA [22]: 17.27 mm; DDA [23]: 17.37 mm; DDA [24]: 28.98 mm; DDA [25, 30]: 17.2 mm; DDA [26, 31]: 16.68 mm; DDA [27]: 0.0 mm; DDA [28]: 18.91 mm; DDA [29]: 21.38 mm
2 | zinc pyrithione [ZP] | active | 0.98 | 50.05 | 23.95 | 0.125 | 7.8 | 18.50 | 19.73 | 20.04 | 29.70 | 43.37 | 32.58 | 16.24 | 14.90 | 16.85 | 14.90 | 25.79 | 26.82 | 12.43 | 14.39 | DDA [19]: 16.34 mm; DDA [20]: 29.91 mm; DDA [21]: 17.37 mm; DDA [22]: 19.01 mm; DDA [23]: 20.96 mm; DDA [24]: 29.70 mm; DDA [25, 30]: 28.14 mm; DDA [25, 32]: 28.14 mm; DDA [26, 31]: 15.85 mm; DDA [26, 33]: 46.44 mm; DDA [27]: 20.31 mm; DDA [28]: 10.79 mm; DDA [29]: 35.56 mm
3 | Cc1cc(N)c2ccccc2[n+]1CCCCCCCCCC[n+]1c(C)cc(N)c2ccccc21.[I-].[I-] [DI, dequalinium iodide] | active | 3.9 |  |  | 0.03 | 125 |  |  |  |  |  |  |  |  |  |  |  |  |  |  | DDA [25, 32]: 22.93 mm; DDA [26, 33]: 21.92 mm
